# Reference: US9982256B2, “Random RNAi libraries, methods of generating same, and screening methods utilizing same” (The Trustees of the University of Pennsylvania, priority 2006, dated 2018)
# Assays:
# FL5.12 cells [1] = assay: Survival of shRNA-infected FL5.12 cells after IL-3 withdrawal (flow cytometry, GFP/PI); assay type: cell-based, murine; conditions: 15 hours into second IL-3 withdrawal, after 1 round of withdrawal and recovery; 6 independent infections; p<0.0001, Student's t-test
# Procedure: High-titer retrovirus was generated by co-transfecting 293T cells with retroviral vector and pCL-Eco, which encodes both ecotropic envelope and gag-pol proteins, using an Effectene® transfection kit (Qiagen). Culture supernatant was harvested each day from 24-72 hours after transfection and used either to infect FL5.12 cells or frozen at ^−80° C. for future use. 1-2 million cells were seeded in each well of a 24-well plate and were centrifuged at 2500×g for 1 hour with viral supernatant, 5 μg/ml polybrene, and 0.3 ng/ml interleukin-3 (IL-3). Cells were stored in the incubator for 2 hours. Viral supernatant was replaced with fresh batches, and the spin/incubation process was repeated 2 more times. Infection efficiency was determined 24-48 hours later by flow cytometric analysis of GFP expression.
# The murine pro-B cell line FL5.12 is IL-3 dependent; 100% of the cells die by apoptosis after IL-3 withdrawal for 3 days, and >90% of cells can be rescued by expression of Bcl-xL59. […]
# 10 shRNA-encoding sequences (“books”) were retrieved by PCR, cloned back into pSiren, and sequenced. […] After 15 hours, cells were analyzed by flow cytometry, identifying infected cells by GFP fluorescence and dead cells by propidium iodide (PI) staining. […]
# caspase 3 = assay: Caspase 3 enzymatic activity in book-infected FL5.12 cells; assay type: cell-based, murine; conditions: correlated with the improved survival after IL-3 withdrawal
# Procedure: (§1) 10 shRNA-encoding sequences (“books”) were retrieved by PCR, cloned back into pSiren, and sequenced. Of the 10, two were the same (books 1 and 7), indicating selective enrichment. FL5.12 cells were infected with 3 of the putative shRNA molecules separately (books 1, 3, and 8), each one assayed in 6 independent infections. The cells were subjected to 1 round of IL-3 withdrawal and recovery and subjected to a second withdrawal from IL-3. After 15 hours, cells were analyzed by flow cytometry, identifying infected cells by GFP fluorescence and dead cells by propidium iodide (PI) staining. Fractions of GFP-positive (infected), PI-negative (live) cells relative to the start of the experiment (just prior to the first IL-3 withdrawal) are depicted in FIG. 16. […] The improved survival with books 1 and 3 correlated with a decrease in caspase 3 enzymatic activity. Because the cycling of IL-3 withdrawal included a recovery segment, books 1 and 3 were tested for effects on growth rate and none were seen. The stem sequences of books 1 and 3 are as follows: […]
# FL5.12 cells [2] = assay: Growth rate of book-infected FL5.12 cells; assay type: cell-based, murine
# Procedure: as §1
# primary FRDA fibroblasts [3] = assay: Glutathione depletion with BSO: viability of primary FRDA fibroblasts; assay type: cell-based; conditions: 1 mM BSO in media with 0.3 mg/ml fully saturated human transferrin; 48 hours; 6-well plate
# Procedure: (§2) Primary FRDA fibroblasts are far more sensitive to oxidative stress than normal control fibroblasts. (Jauslin et al. (Hum Molec Gen 11: 3055, 2002) used L-buthionine (S,R)-sulfoximine (BSO) to block the rate-limiting enzyme in glutathione synthesis, and found a concentration (0.05 mM) at which virtually all primary FRDA fibroblasts lose viability, but more than 90% of normal control fibroblasts retain viability.)
# (§3) […] […] By washing the cells, adding back their normal medium, and looking for colony formation, the minimum conditions under which 100% of the cells die were confirmed.
# [4] = tested on: normal control fibroblasts; assay: Glutathione depletion with BSO: viability of normal control fibroblasts; assay type: cell-based; conditions: 1 mM BSO in media with 0.3 mg/ml fully saturated human transferrin; 48 hours
# Procedure: as §2, §3
# primary FRDA fibroblasts [5] = conditions: 0.05 mM BSO; Jauslin et al. 2002; cited from earlier work
# [6] = tested on: normal control fibroblasts; conditions: 0.05 mM BSO; Jauslin et al. 2002; cited from earlier work
# 293T cells = assay: Overnight CDDO treatment of 293T cells, to establish an apoptosis assay; assay type: cell-based, human; conditions: for adherent cells remaining after treatment: then medium without CDDO
# Procedure: 293T cells (a human, embryonic kidney cell line) were treated overnight (16 hours) with 2, 4, 6, and 8 μM of the synthetic triterpenoid, CDDO.
molecule,measurement,setting,value
"5′-GGGTAGCTACATTTGCATATGTGGATATG-3′ (listed as DNA, chemistry not given here) [Book 1, books 1 and 7 were the same]","survival (GFP-positive, PI-negative cells) relative to random book (ctr153) or vector alone (pSiren)",FL5.12 cells [1],statistically significant improvement in survival
same,caspase 3 enzymatic activity,caspase 3,decrease
same,effects on growth rate,FL5.12 cells [2],none
"5′-GTGGATCAGTGTGTTATAGCTCGGGCAGG-3′ (listed as DNA, chemistry not given here) [Book 3]","survival (GFP-positive, PI-negative cells) relative to random book (ctr153) or vector alone (pSiren)",FL5.12 cells [1],statistically significant improvement in survival
same,caspase 3 enzymatic activity,caspase 3,decrease
same,effects on growth rate,FL5.12 cells [2],none
"CCCCS(=N)(=O)CCC(N)C(=O)O [BSO, L-buthionine (S,R)-sulfoximine]",viability of FRDA cells,primary FRDA fibroblasts [3],all the cells in a 6-well plate nonviable
same,age- and passage-matched controls remaining viable,[4],majority
same,primary FRDA fibroblasts losing viability,primary FRDA fibroblasts [5],virtually all
same,normal control fibroblasts retaining viability,[6],more than 90%
CC1(C)CC[C@]2(C(=O)O)CC[C@]3(C)[C@H](C(=O)C=C4[C@@]5(C)C=C(C#N)C(=O)C(C)(C)[C@@H]5CC[C@]43C)[C@@H]2C1 [CDDO],adherent cells remaining after treatment,293T cells; 2 μM CDDO overnight (16 hours),some adherent cells
same,adherent cells remaining after treatment,293T cells; 4 μM CDDO overnight (16 hours),no remaining adherent cells
same,adherent cells remaining after treatment,293T cells; 6 μM CDDO overnight (16 hours),no remaining adherent cells
same,adherent cells remaining after treatment,293T cells; 8 μM CDDO overnight (16 hours),no remaining adherent cells
same,adherent colonies after post-treatment culture,"293T cells; repeat with 4 μM CDDO, five days of post-treatment culture in medium without CDDO",no adherent colonies were evident
